Source: ChEMBL document CHEMBL1201862, “PubChem BioAssay data set” (2004)
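Step 1: Grow cells in 96-well plates. Step 2: Expose to compound for 48 hours at 5 concentrations. Step 3: Interpolate endpoints linearly; if unreached, use highest concentration. GI50 = concentration required for 50% inhibition of growth.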 Activity calls are given as the source filed them. Rule as the data show it: active = GI50 up to about 1.1 µM and inactive = higher.

Columns and labels:
Assay in all cases: NCI tumour cell line growth inhibition, 48 h
Malme-3M = system: Malme-3M
HOP-62 = system: HOP-62
SNB-75 = system: SNB-75
OVCAR-5 = system: OVCAR-5
HCT-15 = system: HCT-15
MOLT-4 = system: MOLT-4
SK-MEL-5 = system: SK-MEL-5
NCI-H226 = system: NCI-H226
SR = system: SR
TK-10 = system: TK-10
CAKI-1 = system: CAKI-1
ACHN = system: ACHN
SF-539 = system: SF-539
A549 = system: A549
RPMI-8226 = system: RPMI-8226
U-251 = system: U-251
UACC-62 = system: UACC-62
IGROV-1 = system: IGROV-1
MDA-MB-231 = system: MDA-MB-231
MCF7 = system: MCF7

Structure (SMILES) | GI50 (Malme-3M) | GI50 (HOP-62) | GI50 (SNB-75) | GI50 (OVCAR-5) | GI50 (HCT-15) [µM] | GI50 (MOLT-4) | GI50 (SK-MEL-5) | GI50 (NCI-H226) | GI50 (SR) | GI50 (TK-10) | GI50 (CAKI-1) | GI50 (ACHN) | GI50 (SF-539) | GI50 (A549) | GI50 (RPMI-8226) | GI50 (U-251) | GI50 (UACC-62) | GI50 (IGROV-1) | GI50 (MDA-MB-231) | GI50 (MCF7)
CC/C(=N/O)c1ccc2[nH]c3c(C)cc([N+](=O)[O-])c(C)c3c2c1 | 51.3 µM (inactive) | 44 µM (inactive) | 57.3 µM (inactive) | > 100 µM (inactive) | 51.1 | 29.6 µM (inactive) | 57.3 µM (inactive) | > 100 µM (inactive) | 24.4 µM (inactive) | 15.2 µM (inactive) | > 100 µM (inactive) | 25.1 µM (inactive) | 51.5 µM (inactive) | 17.1 µM (inactive) | 52.7 µM (inactive) | – | – | – | – | –
N#CCCN(c1ccc(/C=N/c2ccccc2Cl)cc1)S(=O)(=O)c1ccccc1 | > 100 µM (inactive) | > 100 µM (inactive) | > 100 µM (inactive) | > 100 µM (inactive) | > 100 | > 100 µM (inactive) | > 100 µM (inactive) | > 100 µM (inactive) | > 100 µM (inactive) | > 100 µM (inactive) | > 100 µM (inactive) | > 100 µM (inactive) | > 100 µM (inactive) | > 100 µM (inactive) | > 100 µM (inactive) | > 100 µM (inactive) | > 100 µM (inactive) | > 100 µM (inactive) | – | –
O=[As](O)(O)c1ccc(/N=N/c2ccc([As](=O)(O)O)cc2)cc1 | > 100 µM (inactive) | > 100 µM (inactive) | – | > 100 µM (inactive) | > 100 | > 100 µM (inactive) | > 100 µM (inactive) | > 100 µM (inactive) | > 100 µM (inactive) | > 100 µM (inactive) | > 100 µM (inactive) | > 100 µM (inactive) | – | > 100 µM (inactive) | – | > 100 µM (inactive) | > 100 µM (inactive) | > 100 µM (inactive) | > 100 µM (inactive) | –
Cc1c2nc3ccccc3sc-2cc(=O)c1C | 46.5 µM (inactive) | > 100 µM (inactive) | 52.6 µM (inactive) | > 95.5 µM (inactive) | 12.9 | 34.5 µM (inactive) | 34.8 µM (inactive) | > 100 µM (inactive) | > 10 µM (inactive) | > 100 µM (inactive) | 55 µM (inactive) | 48.9 µM (inactive) | 44.9 µM (inactive) | 48.8 µM (inactive) | 39.8 µM (inactive) | 47.5 µM (inactive) | 15.5 µM (inactive) | > 56.2 µM (inactive) | – | –
N#CC(Sc1ccccc1)C(N)=O (stereo unspecified) | > 100 µM (inactive) | > 100 µM (inactive) | > 100 µM (inactive) | > 100 µM (inactive) | > 100 | > 100 µM (inactive) | > 100 µM (inactive) | > 100 µM (inactive) | > 100 µM (inactive) | > 100 µM (inactive) | > 100 µM (inactive) | – | > 100 µM (inactive) | > 100 µM (inactive) | > 100 µM (inactive) | > 100 µM (inactive) | > 100 µM (inactive) | > 100 µM (inactive) | – | –
CC#CC(OCC)(OCC)OCC | > 100 µM (inactive) | > 100 µM (inactive) | > 100 µM (inactive) | > 100 µM (inactive) | 39.1 | > 100 µM (inactive) | > 100 µM (inactive) | > 100 µM (inactive) | > 100 µM (inactive) | > 100 µM (inactive) | > 100 µM (inactive) | > 100 µM (inactive) | > 100 µM (inactive) | > 100 µM (inactive) | > 100 µM (inactive) | > 100 µM (inactive) | > 100 µM (inactive) | > 100 µM (inactive) | – | –
CCOC(=O)NC1C2CC(=O)OC(O2)C1OC(C)=O (stereo unspecified) | > 100 µM (inactive) | > 100 µM (inactive) | > 100 µM (inactive) | > 100 µM (inactive) | > 100 | > 100 µM (inactive) | > 100 µM (inactive) | 0.424 µM (active) | > 100 µM (inactive) | > 100 µM (inactive) | > 100 µM (inactive) | > 100 µM (inactive) | > 100 µM (inactive) | > 100 µM (inactive) | > 100 µM (inactive) | > 100 µM (inactive) | > 100 µM (inactive) | 59.7 µM (inactive) | – | –
Clc1ccc(-c2c(C3=NCCN3)nnn2-c2ccc(Cl)cc2)cc1 | 19.1 µM (inactive) | 53.1 µM (inactive) | 17.8 µM (inactive) | 33 µM (inactive) | 30.1 | 11.4 µM (inactive) | 16.8 µM (inactive) | 60.4 µM (inactive) | 13.4 µM (inactive) | 19.7 µM (inactive) | 33.5 µM (inactive) | 39.7 µM (inactive) | 18.2 µM (inactive) | 53.2 µM (inactive) | 16.7 µM (inactive) | 20.5 µM (inactive) | 18.1 µM (inactive) | 56 µM (inactive) | – | –
COc1ccc(CC2NCCc3cc(OC)c(OC)cc32)cc1 (stereo unspecified) | > 100 µM (inactive) | > 100 µM (inactive) | > 100 µM (inactive) | > 100 µM (inactive) | > 100 | > 100 µM (inactive) | > 100 µM (inactive) | > 100 µM (inactive) | > 100 µM (inactive) | > 100 µM (inactive) | > 100 µM (inactive) | > 100 µM (inactive) | > 100 µM (inactive) | > 100 µM (inactive) | > 100 µM (inactive) | > 100 µM (inactive) | > 100 µM (inactive) | > 100 µM (inactive) | – | –
O=S(=O)(O)c1ccc2cc(/N=N/c3c(O)ccc4ccccc34)ccc2c1 | 82.6 µM (inactive) | > 100 µM (inactive) | > 100 µM (inactive) | > 100 µM (inactive) | > 100 | > 100 µM (inactive) | > 100 µM (inactive) | > 100 µM (inactive) | > 100 µM (inactive) | > 100 µM (inactive) | > 100 µM (inactive) | > 100 µM (inactive) | > 100 µM (inactive) | > 100 µM (inactive) | – | > 100 µM (inactive) | > 100 µM (inactive) | > 100 µM (inactive) | – | > 100 µM (inactive)
C/C=C/C1(NS(=O)(=O)c2ccc(C)cc2)CCC(C(C)(C)C)CC1 (stereo unspecified) | 22.2 µM (inactive) | 22 µM (inactive) | 53.6 µM (inactive) | 20.7 µM (inactive) | 28.6 | 16.5 µM (inactive) | 17.5 µM (inactive) | 20.6 µM (inactive) | 13.6 µM (inactive) | 35.8 µM (inactive) | 28.8 µM (inactive) | 36.2 µM (inactive) | 21.4 µM (inactive) | 40.7 µM (inactive) | 21.6 µM (inactive) | 16.1 µM (inactive) | 19 µM (inactive) | 28.8 µM (inactive) | – | –
O=C1c2ccccc2C(=O)N1C/C=N/NS(=O)(=O)c1ccc(Cl)cc1 | > 100 µM (inactive) | > 100 µM (inactive) | 66.1 µM (inactive) | – | > 100 | > 100 µM (inactive) | > 100 µM (inactive) | 31.7 µM (inactive) | > 100 µM (inactive) | > 100 µM (inactive) | > 100 µM (inactive) | > 100 µM (inactive) | > 100 µM (inactive) | > 100 µM (inactive) | > 100 µM (inactive) | > 100 µM (inactive) | > 100 µM (inactive) | > 100 µM (inactive) | – | –
CCN(CC)CCOc1ccc(C(O)(Cc2ccc(OC)cc2)c2ccccc2)cc1 (stereo unspecified) | 18.5 µM (inactive) | 15.9 µM (inactive) | 12.6 µM (inactive) | 20 µM (inactive) | 19.1 | 14.4 µM (inactive) | 13.2 µM (inactive) | 26.4 µM (inactive) | 10.7 µM (inactive) | 28.7 µM (inactive) | 21.7 µM (inactive) | 27.5 µM (inactive) | 12.4 µM (inactive) | 21.8 µM (inactive) | 13.4 µM (inactive) | 16.2 µM (inactive) | 16.7 µM (inactive) | 32.6 µM (inactive) | – | –
Nc1nc2sc3ccccc3c(=O)n2n1 | > 100 µM (inactive) | > 100 µM (inactive) | > 100 µM (inactive) | > 100 µM (inactive) | > 100 | > 100 µM (inactive) | > 100 µM (inactive) | > 100 µM (inactive) | > 100 µM (inactive) | > 100 µM (inactive) | > 100 µM (inactive) | > 100 µM (inactive) | > 100 µM (inactive) | > 100 µM (inactive) | > 100 µM (inactive) | > 100 µM (inactive) | > 100 µM (inactive) | > 100 µM (inactive) | – | –
COc1cccc(-c2cc(O)c3cc4c(cc3n2)OCO4)c1 | 0.0488 µM (active) | 0.116 µM (active) | 0.0424 µM (active) | 0.251 µM (active) | 0.118 | 0.139 µM (active) | 0.0352 µM (active) | 0.198 µM (active) | 0.169 µM (active) | 0.662 µM (active) | 0.0339 µM (active) | 0.183 µM (active) | 0.0603 µM (active) | 0.313 µM (active) | 0.492 µM (active) | 0.121 µM (active) | 0.0531 µM (active) | 0.366 µM (active) | – | –
C=CCOC1OC(CO[Si](C)(C)C(C)(C)C)C(OCc2ccccc2)C(OCc2ccccc2)C1OCc1ccccc1 (stereo unspecified) | 27.5 µM (inactive) | 21.7 µM (inactive) | 21.5 µM (inactive) | > 100 µM (inactive) | 88.3 | > 100 µM (inactive) | 29.5 µM (inactive) | > 100 µM (inactive) | > 100 µM (inactive) | > 100 µM (inactive) | 54.5 µM (inactive) | 40.4 µM (inactive) | – | 23.6 µM (inactive) | > 100 µM (inactive) | 29.2 µM (inactive) | 27.2 µM (inactive) | 90.2 µM (inactive) | – | 54.3 µM (inactive)
